Tested on: ATDC5 cells
Assay: Chondrogenesis activity assay in ATDC5 cells (collagen type II induction, immunofluorescence)
Assay type: cell-based, mouse
Settings: Mus musculus; for EC50: collagen type II induction in ATDC5 cells, concentration reaching 50% of maximum induction; for Emax: maximum percent induction of collagen type II relative to internal reference compound at 10 μM, ATDC5 cells
Method in brief: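 Collagen type II was stained in fixed, permeabilized cells with an Alexa Fluor 488 secondary and measured by high-content fluorescence imaging. ATDC5 cells had 4 days at 37 °C in insulin-supplemented differentiation medium with compound, typically 40 nM–10 μM, 0.1% DMSO. DMSO wells and a 10 μM internal reference compound were used for normalization.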

Row | SMILES | EC50 [nM] | Emax [%]
1 | COc1ccc(-c2cc(Cl)cc3c2[nH]c2c(C)nccc23)c(OC)c1 [Example 193, 6-Chloro-8-(2,4-dimethoxy-phenyl)-1-methyl-9H-pyrido[3,4-b]indole] | > 10000 | 20 to 50
2 | Cc1nccc2c1[nH]c1c(-c3ccc4c(c3)OC(C)C4)cc(Cl)cc12 (stereo not shown) [Example 196, 6-Chloro-1-methyl-8-(2-methyl-2,3-dihydro-benzofuran-6-yl)-9H-pyrido[3,4-b]indole] | 800 | 50 to 80
3 | Cc1nccc2c1[nH]c1c(-c3ccc(OC4CCOC4)cc3)cc(Cl)cc12 (stereo not shown) [Example 197, 6-Chloro-1-methyl-8-[4-(tetrahydro-furan-3-yloxy)-phenyl]-9H-pyrido[3,4-b]indole] | 630 | > 80
4 | Cc1cc(-c2cc(Cl)cc3c2[nH]c2c(C)nccc23)ccc1OC1CCOC1 (stereo not shown) [Example 198, 6-Chloro-1-methyl-8-[3-methyl-4-(tetrahydrofuran-3-yloxy)-phenyl]-9H-pyrido[3,4-b]indole] | 1800 | 20 to 50
5 | COCCn1c2cnccc2c2cc(Cl)cc(-c3ccc(OC)cc3)c21 [Example 201, 6-Chloro-9-(2-methoxy-ethyl)-8-(4-methoxy-phenyl)-9H-pyrido[3,4-b]indole] | 600 | > 80
6 | Cc1nccc2c1[nH]c1c(-c3ccc(OCc4ccccn4)cc3)cc(Cl)cc12 [Example 202, 6-Chloro-1-methyl-8-[4-(pyridin-2-ylmethoxy)-phenyl]-9H-pyrido[3,4-b]indole] | 640 | > 80
7 | CCOC(=O)c1ccc2[nH]c(-c3cc(Cl)cc4c3[nH]c3c(C)nccc34)cc2c1 [Example 203, 2-(6-Chloro-1-methyl-9H-pyrido[3,4-b]indol-8-yl)-1H-indole-5-carboxylic acid ethyl ester] | > 10000 | < 20
8 | Cc1nccc2c1[nH]c1c(-c3ccc(CC(=O)N4CCC(N5CCCC5)CC4)cc3)cc(Cl)cc12 [Example 204, 2-[4-(6-Chloro-1-methyl-9H-pyrido[3,4-b]indol-8-yl)-phenyl]-1-(4-pyrrolidin-1-yl-piperidin-1-yl)-ethanone] | 190 | 50 to 80
9 | Cc1nccc2c1[nH]c1c(-c3ccc(Oc4ccccc4)cc3)cc(Cl)cc12 [Example 205, 6-Chloro-1-methyl-8-(4-phenoxy-phenyl)-9H-pyrido[3,4-b]indole] | 3300 | > 80
10 | CCn1c2c(-c3cnn(Cc4ccccc4)c3)cc(Cl)cc2c2ccnc(C)c21 [Example 207, 8-(1-Benzyl-1H-pyrazol-4-yl)-6-chloro-9-ethyl-1-methyl-9H-pyrido[3,4-b]indole] | 1600 | > 80
11 | CCn1c2c(-c3cnn(Cc4ccccc4)c3)cc(Br)cc2c2ccnc(C)c21 [Example 208, 8-(1-Benzyl-1H-pyrazol-4-yl)-6-bromo-9-ethyl-1-methyl-9H-pyrido[3,4-b]indole] | 1900 | > 80
12 | CCc1nc(C)cc2c3cc(Br)cc(-c4cnn(C)c4)c3n(CC)c12 [Example 210, 6-Bromo-1,9-diethyl-3-methyl-8-(1-methyl-1H-pyrazol-4-yl)-9H-pyrido[3,4-b]indole] | > 3300 | < 20
13 | CCc1cc2c([nH]c3c(-c4ccc(OC)cc4)cc(Br)cc32)c(C)n1 [Example 211, 6-Bromo-3-ethyl-8-(4-methoxy-phenyl)-1-methyl-9H-pyrido[3,4-b]indole] | > 3300 | < 20
14 | Cc1nccc2c1[nH]c1c(-c3ccnc(N)c3)cc(Cl)cc12 [Example 215, 4-(6-Chloro-1-methyl-9H-pyrido[3,4-b]indol-8-yl)-pyridin-2-ylamine] | 230 | > 80
15 | CCn1c2c(-c3ccnc(N4CCN(C)CC4)c3)cc(Cl)cc2c2ccnc(C)c21 [Example 219, 6-Chloro-9-ethyl-1-methyl-8-[2-(4-methyl-piperazin-1-yl)-pyridin-4-yl]-9H-pyrido[3,4-b]indole] | > 3300 | < 20
16 | CCn1c2c(-c3cccc(C(N)=O)c3)cc(Cl)cc2c2ccnc(C)c21 [Example 220, 3-(6-Chloro-9-ethyl-1-methyl-9H-pyrido[3,4-b]indol-8-yl)-benzamide] | > 10000 | 20 to 50
17 | COc1cc(-c2cc(Cl)cc3c2[nH]c2c(C)nccc23)ccc1OCc1ccccn1 [Example 221, 6-Chloro-8-[3-methoxy-4-(pyridin-2-ylmethoxy)-phenyl]-1-methyl-9H-pyrido[3,4-b]indole] | > 3300 | 20 to 50
18 | COc1cc(-c2cc(Cl)cc3c2[nH]c2c(C)nccc23)ccc1OCc1ccccc1 [Example 222, 8-(4-Benzyloxy-3-methoxy-phenyl)-6-chloro-1-methyl-9H-pyrido[3,4-b]indole] | > 10000 | < 20
19 | Cc1nccc2c1[nH]c1c(-c3ccc(CN4CCOCC4)cc3)cc(Cl)cc12 [Example 224, 6-Chloro-1-methyl-8-(4-morpholin-4-ylmethyl-phenyl)-9H-pyrido[3,4-b]indole] | 310 | > 80

Row | SMILES | EC50 [nM] | Emax [%]
20 | Cc1nccc2c1[nH]c1c(-c3ccc(OC4CCCC4)cc3)cc(Cl)cc12 [Example 225, 6-Chloro-8-(4-cyclopentyloxy-phenyl)-1-methyl-9H-pyrido[3,4-b]indole] | 1700 | > 80
21 | Cc1nccc2c1[nH]c1c(-c3ccc(OCc4cccc(F)n4)cc3)cc(Cl)cc12 [Example 226, 6-Chloro-8-[4-(6-fluoro-pyridin-2-ylmethoxy)-phenyl]-1-methyl-9H-pyrido[3,4-b]indole] | 190 | 50 to 80
22 | Cc1nccc2c1[nH]c1c(-c3ccnn3C)cc(Cl)cc12 [Example 227, 6-Chloro-1-methyl-8-(2-methyl-2H-pyrazol-3-yl)-9H-pyrido[3,4-b]indole] | 330 | > 80
23 | Cc1nccc2c1[nH]c1c(-c3ccc(OCC(O)CN4CCCCC4)cc3)cc(Cl)cc12 (stereo not shown) [Example 229, 1-[4-(6-Chloro-1-methyl-9H-pyrido[3,4-b]indol-8-yl)-phenoxy]-3-piperidin-1-yl-propan-2-ol] | 280 | 50 to 80
24 | Cc1nccc2c1[nH]c1c(-c3ccc(OCCc4ccccc4)cc3)cc(Cl)cc12 [Example 231, 6-Chloro-1-methyl-8-(4-phenethyloxy-phenyl)-9H-pyrido[3,4-b]indole] | > 10000 | 20 to 50
25 | Cc1nccc2c1[nH]c1c(-c3ccc4[nH]ncc4c3)cc(Cl)cc12 [Example 232, 6-Chloro-8-(1H-indazol-5-yl)-1-methyl-9H-pyrido[3,4-b]indole] | 330 | > 80
26 | CCn1c2c(-c3ccn(CCn4cccn4)n3)cc(Cl)cc2c2ccnc(C)c21 [Example 233, 6-Chloro-9-ethyl-1-methyl-8-[1-(2-pyrazol-1-yl-ethyl)-1H-pyrazol-3-yl]-9H-pyrido[3,4-b]indole] | > 10000 | 20 to 50
27 | CCn1c2c(-c3cc[nH]n3)cc(Cl)cc2c2ccnc(C)c21 [Example 234, 6-Chloro-9-ethyl-1-methyl-8-(1H-pyrazol-3-yl)-9H-pyrido[3,4-b]indole] | 5800 | 50 to 80
28 | Cc1nccc2c1[nH]c1c(-c3cnc(-n4cccn4)nc3)cc(Cl)cc12 [Example 237, 6-Chloro-1-methyl-8-(2-pyrazol-1-yl-pyrimidin-5-yl)-9H-pyrido[3,4-b]indole] | 500 | > 80
29 | CCn1c2c(-c3ccc(C(O)c4ccccc4)cc3)cc(Cl)cc2c2ccnc(C)c21 (stereo not shown) [Example 238, [4-(6-Chloro-9-ethyl-1-methyl-9H-pyrido[3,4-b]indol-8-yl)-phenyl]-phenyl-methanol] | 1400 | > 80
30 | CCn1c2c(-c3cn[nH]c3)cc(Cl)cc2c2ccnc(C)c21 [Example 239, 6-Chloro-9-ethyl-1-methyl-8-(1H-pyrazol-4-yl)-9H-pyrido[3,4-b]indole] | 250 | 50 to 80
31 | COc1ccc(-c2cc(Cl)cc3c4ccnc(C)c4n(C)c23)nc1N [Example 240, 6-(6-Chloro-1,9-dimethyl-9H-pyrido[3,4-b]indol-8-yl)-3-methoxy-pyridin-2-ylamine] | 490 | 50 to 80
32 | Cc1nccc2c1[nH]c1c(-c3cnn(Cc4ccccn4)c3)cc(Cl)cc12 [Example 242, 6-Chloro-1-methyl-8-(1-pyridin-2-ylmethyl-1H-pyrazol-4-yl)-9H-pyrido[3,4-b]indole] | 570 | > 80
33 | Cc1nccc2c1[nH]c1c(-c3ccc([S+](C)[O-])cc3)cc(Cl)cc12 (stereo not shown) [Example 243, 6-Chloro-8-(4-methanesulfinyl-phenyl)-1-methyl-9H-pyrido[3,4-b]indole] | 660 | > 80
34 | CCn1c2c(-c3ccc(Oc4ccccc4)cc3)cc(Cl)cc2c2ccnc(C)c21 [Example 246, 6-Chloro-9-ethyl-1-methyl-8-(4-phenoxy-phenyl)-9H-pyrido[3,4-b]indole] | 2900 | 50 to 80
35 | Cc1nccc2c1[nH]c1c(-c3cccc(CCO)c3)cc(Cl)cc12 [Example 248, 2-[3-(6-Chloro-1-methyl-9H-pyrido[3,4-b]indol-8-yl)-phenyl]-ethanol] | > 3300 | 20 to 50
36 | Cc1nccc2c1[nH]c1c(-c3cccc(OCCN4CCOCC4)c3)cc(Cl)cc12 [Example 249, 6-Chloro-1-methyl-8-[3-(2-morpholin-4-yl-ethoxy)-phenyl]-9H-pyrido[3,4-b]indole] | > 3300 | 20 to 50
37 | Cc1nccc2c1[nH]c1c(-c3ccc(C(F)(F)F)cc3)cc(Cl)cc12 [Example 252, 6-Chloro-1-methyl-8-(4-trifluoromethyl-phenyl)-9H-pyrido[3,4-b]indole] | 1600 | > 80
38 | CCn1c2c(-c3cccc(N4CCOCC4)c3)cc(Cl)cc2c2ccnc(C)c21 [Example 253, 6-Chloro-9-ethyl-1-methyl-8-(3-morpholin-4-yl-phenyl)-9H-pyrido[3,4-b]indole] | > 10000 | 20 to 50

From patent US12275733B2, “Substituted pyrido[3,4-b]indoles for the treatment of cartilage disorders” (Sanofi, priority 2016, dated 2025)
